Assay results published in patent US10196357B2, “Biaryl compositions and methods for modulating a kinase cascade” (Athenex, Inc., priority 2007, dated 2019).
“And” between values parts separate entries of the source, which are not always exact repeats. Identical values can stand only once. Like-named read-outs stand apart in the source and are kept apart here.

Key:
[1] = plasma exposure after oral administration; assay type: in vivo, male CD-1 mice; settings: Male CD-1 mice
Description: Plasma concentrations were measured in mice after oral administration. All doses were formulated in purified water. Four groups of male CD-1 mice were dosed after an overnight fast and fed 4 hours post-dose. Dosing was as follows:
Protein was precipitated with 0.25 mL acetonitrile for plasma, 0.25 mL for brain. After centrifugation, supernatant was directly injected into an LC/MS system. The limit of quantitation was 1 ng/mL using a 50 μL aliquot for plasma and a 50 μL, aliquot for brain. The standard curve was 1 to 1,000 ng/mL for both plasma and brain. HPLC conditions were as follows:
HPLC System: Shimadzu SCL-10 System
• Analytical Column: Aquasil C18 5 μm 100×2 mm column. • Column Temperature: Ambient temperature • Autosampler Temperature: Ambient temperature • Mobile Phase A) 10 mM Ammonium formate in water (pH 4). • B) Acetonitrile. • Flow Rate: 0.6 mL/min • Injection Volume: 2 μL • Gradient:
• Mass Spectrometry Conditions were as follows: • Instrument: ABI Sciex API 4000 • Mode: ESI+ • Experiment: MRM (multiple reaction monitoring) • Transitions: KX2-391: m/z 432.4→114.2 (Rt=3.11 minute) • KX2-361: m/z 406.1→253.2 (Rt=3.33 minute)

[2] = test system: c-Src 3T3 cells; assay: BrdU cell growth inhibition, c-Src 3T3; assay type: cell-based, mouse; settings: for GI50: c-Src 3T3 (c-Src527F/NIH3T3) cells, read-out: GI50
Procedure, shortened: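 c-Src 3T3 cells on poly-D-lysine plates in DMEM with 2% FBS, L-glutamine, pyruvate and 10 mM HEPES. Compounds came from 20 mM DMSO stocks diluted in DMEM/10% FBS. Proliferation was read by colorimetric BrdU-incorporation ELISA, and GI50 was extrapolated from growth relative to time-zero and untreated controls.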

[3] = test system: HT29 cell line; assay: BrdU cell growth inhibition, HT29; assay type: cell-based, human; settings: for GI50: read-out: GI50
Procedure, shortened: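 HT29 colon carcinoma cells treated with compounds diluted from 20 mM DMSO stocks into DMEM/10% FBS. Proliferation read as colorimetric BrdU incorporation ELISA; GI calculated relative to untreated cells at time 0 and control cells at day n, with GI50 extrapolated. Net cell loss below time-0 level scored as cytotoxicity.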

[4] = body weight in GL261 glioma survival study; assay type: in vivo; settings: C57BL/6 mice
Description: A brain tumor mouse xenograft study was conducted comparing KX2-361 and KX2-391 (KXO1) to Temodar®. The studies were conducted in C57BL/6 mice. GL261 glioma cells (1×10^5 in 5 μl DMEM) were implanted intracranial coordinates: bregma, lateral 2.0 mm, anterior 1.2 mm, 3.0 mm depth dura. Treatment was initiated 3 days post implantation. The groups were as follows (all doses in 100 μl H2O):
FIGS. 49A-E show the weight gain in each of the C57BL/6 mice in the different treatment groups. The average weight at endpoint for each of the treatment groups is shown below in Table 30. FIG. 50 is a graph showing the average weights over a 40-day period for each of the treatment groups.

[5] = target: isolated Src (Homo sapiens, UniProt P12931); assay: titration against isolated Src; assay type: biochemical; settings: titration data
[6] = test system: PDGF receptor tyrosine kinase Y572/574; assay: PDGF receptor autophosphorylation in cells; assay type: cell-based; settings: c-Src527F/NIH-3T3 cells
Description: HT29 (colon cancer) and c-Src527F/NIH-3T3 (Src transformed) cell lines were treated with KX2-391 or with AstraZeneca's ATP competitive Src inhibitor AZ28. AZ28 serves as a positive comparator to show what a validated Src inhibitor should do in these assays. After treatment with compound, cells were lysed, subjected to PAGE and probed with a battery of antibodies. […] In addition, off-target protein phosphorylation was also investigated. Further, induction of apoptosis was evaluated via Caspase 3 cleavage. Multiple doses of each compound were tested because the trends in response to increasing drug concentration are the most reliable indicator of activity.
The same range of multiples of the GI50 for AZ28 in these two cell lines was run as a comparison.
This is thought not to be a direct Src substrate in cells.

[7] = test system: L3.6pl cells; assay: growth inhibition (BrdU), L3.6pl; assay type: cell-based, human; settings: L3.6pl (Pancreas) cells, single agent
Source text: L3.6pl cells are previously described in Trevino et al. Am J Pathol.

[8] = single PO dose 10 mg/kg (Group 3), 0 hr
[9] = single PO dose 10 mg/kg (Group 3), 0.5 hr
[10] = single PO dose 10 mg/kg (Group 3), 1 hr
[11] = single PO dose 10 mg/kg (Group 3), 2 hr
[12] = single PO dose 10 mg/kg (Group 3), 5 hr
[13] = single PO dose 50 mg/kg (Group 4), 0 hr
[14] = single PO dose 50 mg/kg (Group 4), 0.5 hr
[15] = single PO dose 50 mg/kg (Group 4), 1 hr
[16] = single PO dose 50 mg/kg (Group 4), 2 hr
[17] = single PO dose 50 mg/kg (Group 4), 5 hr

Chain of isolated Src (P12931 whole entry): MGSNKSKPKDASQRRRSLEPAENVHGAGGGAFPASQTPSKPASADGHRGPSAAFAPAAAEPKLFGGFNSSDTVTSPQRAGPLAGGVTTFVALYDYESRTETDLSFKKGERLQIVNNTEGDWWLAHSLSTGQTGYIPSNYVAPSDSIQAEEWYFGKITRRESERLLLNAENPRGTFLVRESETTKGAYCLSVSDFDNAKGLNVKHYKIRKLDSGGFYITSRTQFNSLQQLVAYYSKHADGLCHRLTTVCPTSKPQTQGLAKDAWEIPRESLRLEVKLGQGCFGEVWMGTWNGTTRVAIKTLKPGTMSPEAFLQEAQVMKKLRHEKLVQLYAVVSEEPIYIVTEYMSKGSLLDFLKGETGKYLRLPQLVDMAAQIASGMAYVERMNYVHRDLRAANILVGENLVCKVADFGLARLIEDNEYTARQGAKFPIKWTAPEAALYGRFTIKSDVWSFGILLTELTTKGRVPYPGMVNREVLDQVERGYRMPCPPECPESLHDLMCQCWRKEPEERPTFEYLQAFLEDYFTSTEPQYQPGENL

O=C(Cc1ccc(-c2ccc(N3CCOCC3)cc2)cn1)NCc1cccc(F)c1 [KX2-361]
KX2-361 Plasma Concentrations, Group A [1, 8]: BLQ (BLQ: Below Limit of Quantitation (1 ng/mL)) | KX2-361 Plasma Concentrations, Group B [1, 8]: BLQ (BLQ: Below Limit of Quantitation (1 ng/mL)) | KX2-361 Plasma Concentrations, Group C [1, 8]: BLQ (BLQ: Below Limit of Quantitation (1 ng/mL)) | KX2-361 Plasma Concentrations, Group A [1, 9]: 65.93 ng/mL | KX2-361 Plasma Concentrations, Group B [1, 9]: 217.56 ng/mL | KX2-361 Plasma Concentrations, Group C [1, 9]: 159.53 ng/mL | KX2-361 Plasma Concentrations, Group A [1, 10]: 284.09 ng/mL | KX2-361 Plasma Concentrations, Group B [1, 10]: 596.31 ng/mL | KX2-361 Plasma Concentrations, Group C [1, 10]: 398.35 ng/mL | KX2-361 Plasma Concentrations, Group A [1, 11]: 153.07 ng/mL | KX2-361 Plasma Concentrations, Group B [1, 11]: 118.96 ng/mL | KX2-361 Plasma Concentrations, Group C [1, 11]: 342.45 ng/mL | KX2-361 Plasma Concentrations, Group A [1, 12]: 2.63 ng/mL | KX2-361 Plasma Concentrations, Group B [1, 12]: 64.15 ng/mL | KX2-361 Plasma Concentrations, Group C [1, 12]: 53.18 ng/mL | KX2-361 Plasma Concentrations, Group A [1, 13]: BLQ (BLQ: Below Limit of Quantitation (1 ng/mL)) | KX2-361 Plasma Concentrations, Group B [1, 13]: BLQ (BLQ: Below Limit of Quantitation (1 ng/mL)) | KX2-361 Plasma Concentrations, Group C [1, 13]: BLQ (BLQ: Below Limit of Quantitation (1 ng/mL)) | KX2-361 Plasma Concentrations, Group B [1, 14]: 2316.91 ng/mL | KX2-361 Plasma Concentrations, Group C [1, 14]: 1587.18 ng/mL | KX2-361 Plasma Concentrations, Group A [1, 15]: 1805.19 ng/mL | KX2-361 Plasma Concentrations, Group B [1, 15]: 969.48 ng/mL | KX2-361 Plasma Concentrations, Group C [1, 15]: 3635.91 ng/mL | KX2-361 Plasma Concentrations, Group A [1, 16]: 475.13 ng/mL | KX2-361 Plasma Concentrations, Group B [1, 16]: 1710.13 ng/mL | KX2-361 Plasma Concentrations, Group C [1, 16]: 1709.02 ng/mL | KX2-361 Plasma Concentrations, Group A [1, 17]: 138.53 ng/mL | KX2-361 Plasma Concentrations, Group B [1, 17]: 252.81 ng/mL | KX2-361 Plasma Concentrations, Group C [1, 17]: 298.99 ng/mL | activity at 0.1 µM ([2]; Mus musculus, NIH3T3, 100 nM, read-out: c-Src 3T3 Growth, % of Control Mean, n = 3): < 0% | activity at 1 µM ([2]; Mus musculus, NIH3T3, 1.0 uM, read-out: c-Src 3T3 Growth, % of Control Mean, n = 3): < 0% | activity at 10 µM ([2]; Mus musculus, NIH3T3, 10 uM, read-out: c-Src 3T3 Growth, % of Control Mean, n = 3): < 0% | GI50 ([2]; Mus musculus): 0.011 µM | GI50 ([3]; Homo sapiens, HT-29, HT29 (Colon) cells): 0.01 µM | activity at 0.05 µM ([3]; Homo sapiens, HT-29, 50 nM, read-out: HT-29 Growth, % of Control Mean, n = 3): < 0% | activity at 0.5 µM ([3]; Homo sapiens, HT-29, 500 nM, read-out: HT-29 Growth, % of Control Mean, n = 3): < 0% | activity at 5 µM ([3]; Homo sapiens, HT-29, 5 uM, read-out: HT-29 Growth, % of Control Mean, n = 3): < 0% | Average weight at endpoint ([4]; 15 mg/kg): 16.9 g | Average weight at endpoint ([4]; 30 mg/kg): 15.0 g

O=C(Cc1ccc(-c2ccc(OCCN3CCOCC3)cc2)cn1)NCc1ccccc1 [KXO1]
IC50 [5]: 46 µM | PDGF receptor Y572/574 autophosphorylation [6]: not inhibited | GI50 [2]: 0.023 µM | GI50 [7]: 0.025 µM and 0.032 µM | GI50 ([3]; HT29 (Colon) cells): 0.025 µM
